Measurements: ChEMBL document CHEMBL1250518, “Nonsteroidal dissociated glucocorticoid agonists containing azaindoles as steroid A-ring mimetics” (J Med Chem, 2010)

Tests used:
[1] = system: Mus musculus; assay: Toxicity in collagen and Freund's complete adjuvant-induced B10.RIII mouse arthritis model assessed as increase of body fat content at 30 mg/kg, po qd for 5 weeks; format: organism-based; set-up: dose 30 mg/kg, route oral; conditions: in vivo, 840 h
[2] = system: Mus musculus; assay: Antiinflammatory effect in collagen and Freund's complete adjuvant-induced B10.RIII mouse arthritis model assessed as inhibition of disease progression at 30 mg/kg, po qd for 5 weeks; format: functional; conditions: 840 h
[3] = system: Mus musculus; assay: Toxicity in collagen and Freund's complete adjuvant-induced B10.RIII mouse arthritis model assessed as increase of free fatty acids level at 30 mg/kg, po qd for 5 weeks; format: organism-based; set-up: dose 30 mg/kg, route oral; conditions: in vivo, 840 h
[4] = biological target: T1, Glucocorticoid receptor (Homo sapiens, UniProt P04150); assay: Binding affinity to glucocorticoid receptor expressed in baculovirus-infected insect cells using tetramethylrhodamine labeled Dexamethasone by fluorescence polarization microplate assay
T1 sequence (P04150 whole entry): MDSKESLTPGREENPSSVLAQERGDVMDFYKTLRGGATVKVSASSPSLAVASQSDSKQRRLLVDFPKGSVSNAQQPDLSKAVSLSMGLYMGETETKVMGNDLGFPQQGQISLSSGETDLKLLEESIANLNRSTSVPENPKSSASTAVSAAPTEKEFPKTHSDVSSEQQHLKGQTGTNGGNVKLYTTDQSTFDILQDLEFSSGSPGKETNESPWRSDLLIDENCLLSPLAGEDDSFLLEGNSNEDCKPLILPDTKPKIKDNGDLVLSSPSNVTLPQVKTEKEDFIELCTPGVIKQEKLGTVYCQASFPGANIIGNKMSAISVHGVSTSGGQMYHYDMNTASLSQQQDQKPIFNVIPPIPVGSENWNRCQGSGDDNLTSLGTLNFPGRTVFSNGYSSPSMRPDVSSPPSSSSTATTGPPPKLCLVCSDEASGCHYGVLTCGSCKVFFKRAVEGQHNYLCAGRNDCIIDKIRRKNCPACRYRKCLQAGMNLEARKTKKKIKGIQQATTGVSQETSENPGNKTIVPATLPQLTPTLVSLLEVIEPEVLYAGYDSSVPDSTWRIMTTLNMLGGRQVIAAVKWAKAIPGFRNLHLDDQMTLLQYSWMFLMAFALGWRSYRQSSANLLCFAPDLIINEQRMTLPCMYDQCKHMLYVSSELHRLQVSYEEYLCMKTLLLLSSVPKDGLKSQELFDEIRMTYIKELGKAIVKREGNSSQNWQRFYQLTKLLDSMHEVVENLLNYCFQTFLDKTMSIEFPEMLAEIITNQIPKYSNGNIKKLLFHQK

[5] = system: Mus musculus; assay: Antiinflammatory activity in po dosed BALB/c mouse assessed as reduction of LPS-induced plasma TNFalpha level administered 1 hr before LPS challenge by ELISA; format: functional
[6] = biological target: T1, Glucocorticoid receptor; assay: Transactivation activity at glucocorticoid receptor in HFF assessed as induction of aromatase activity after 18 to 24 hrs by ELISA; format: cell-based
[7] = biological target: T2, Mineralocorticoid receptor (Homo sapiens, UniProt P08235); assay: Binding affinity to mineralocorticoid receptor expressed in baculovirus-infected insect cells using tetramethylrhodamine labeled Dexamethasone by fluorescence polarization microplate assay
T2 sequence (P08235 whole entry): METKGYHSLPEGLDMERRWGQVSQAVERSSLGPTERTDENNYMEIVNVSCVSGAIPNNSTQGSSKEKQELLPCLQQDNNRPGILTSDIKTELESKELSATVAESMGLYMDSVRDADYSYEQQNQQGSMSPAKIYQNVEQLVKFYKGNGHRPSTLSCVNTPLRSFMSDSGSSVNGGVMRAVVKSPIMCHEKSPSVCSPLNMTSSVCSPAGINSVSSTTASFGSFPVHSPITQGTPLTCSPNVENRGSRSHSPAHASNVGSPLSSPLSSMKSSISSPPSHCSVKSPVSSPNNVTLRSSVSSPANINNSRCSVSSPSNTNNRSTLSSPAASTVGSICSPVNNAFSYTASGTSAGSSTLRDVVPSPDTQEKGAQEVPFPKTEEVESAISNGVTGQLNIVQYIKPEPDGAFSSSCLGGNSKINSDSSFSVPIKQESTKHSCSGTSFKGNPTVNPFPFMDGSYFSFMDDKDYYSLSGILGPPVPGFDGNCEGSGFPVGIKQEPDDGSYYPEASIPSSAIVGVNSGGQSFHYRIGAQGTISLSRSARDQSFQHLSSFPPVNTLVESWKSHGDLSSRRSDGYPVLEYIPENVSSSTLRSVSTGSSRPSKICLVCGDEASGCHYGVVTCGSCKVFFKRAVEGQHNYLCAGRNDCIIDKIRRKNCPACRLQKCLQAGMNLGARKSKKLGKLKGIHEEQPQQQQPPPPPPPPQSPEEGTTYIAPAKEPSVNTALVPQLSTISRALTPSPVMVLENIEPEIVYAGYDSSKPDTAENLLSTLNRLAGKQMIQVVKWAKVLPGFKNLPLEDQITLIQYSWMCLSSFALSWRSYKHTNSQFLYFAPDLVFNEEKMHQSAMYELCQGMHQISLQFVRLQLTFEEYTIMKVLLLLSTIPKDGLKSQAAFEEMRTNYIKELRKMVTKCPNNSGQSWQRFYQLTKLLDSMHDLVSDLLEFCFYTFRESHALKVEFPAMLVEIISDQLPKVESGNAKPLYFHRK

[8] = system: Rattus norvegicus; assay: AUC (infinity) in Sprague-Dawley rat at 30 mg/kg, po; format: ADME, organism-based, Plasma; set-up: time infinity, dose 30 mg/kg, route oral; conditions: in vivo
[9] = biological target: T1, Glucocorticoid receptor; assay: Transrepression activity at glucocorticoid receptor in HFF assessed as inhibition of IL-1-induced IL-6 production after 18 to 24 hrs by ELISA; format: cell-based
[10] = Cmax in Sprague-Dawley rat at 30 mg/kg, po; format: ADME, organism-based; set-up: dose 30 mg/kg, route oral; conditions: in vivo
[11] = Volume of distribution at steady state in Sprague-Dawley rat at 5 mg/kg, iv; format: ADME, organism-based; set-up: dose 5 mg/kg, route intravenous; conditions: in vivo, read-out: Vdss
[12] = Half life in Sprague-Dawley rat at 5 mg/kg, iv; format: ADME, organism-based; set-up: dose 5 mg/kg, route intravenous; conditions: in vivo
[13] = system: Mus musculus; assay: Toxicity in B10.RIII mouse assessed as increase of serum insulin level at 30 mg/kg, po qd for 5 weeks; format: organism-based; set-up: dose 30 mg/kg, route oral; conditions: in vivo, 840 h
[14] = biological target: T1, Glucocorticoid receptor; assay: Transactivation activity at glucocorticoid receptor in human HeLa cells transfected with luciferase gene linked to MMTV promoter by luciferase assay; format: cell-based
[15] = system: Mus musculus; assay: Toxicity in B10.RIII mouse assessed as increase of triglyceride level at 30 mg/kg, po qd for 5 weeks; format: organism-based; set-up: dose 30 mg/kg, route oral; conditions: in vivo, 840 h
[16] = system: Mus musculus; assay: Toxicity in collagen and Freund's complete adjuvant-induced B10.RIII mouse arthritis model assessed as increase of triglyceride level at 30 mg/kg, po qd for 5 weeks; format: organism-based; set-up: dose 30 mg/kg, route oral; conditions: in vivo, 840 h
[17] = system: Rattus norvegicus; assay: Oral bioavailability in Sprague-Dawley rat at 30 mg/kg; format: ADME, organism-based; conditions: in vivo
[18] = system: Mus musculus; assay: Toxicity in collagen and Freund's complete adjuvant-induced B10.RIII mouse arthritis model assessed as increase of serum insulin level at 30 mg/kg, po qd for 5 weeks; format: organism-based; set-up: dose 30 mg/kg, route oral; conditions: in vivo, 840 h
[19] = system: Mus musculus; assay: Toxicity in B10.RIII mouse assessed as increase of body fat content at 30 mg/kg, po qd for 5 weeks; format: organism-based; set-up: dose 30 mg/kg, route oral; conditions: in vivo, 840 h

Which Activity [1] does the source give for CC(C)(C[C@@](O)(Cc1cc2ccncc2[nH]1)C(F)(F)F)c1cc(F)ccc1O here?
Its Activity is “Toxic”.

And the inhibition in vivo at 30 mg/kg [2]?
Its inhibition in vivo at 30 mg/kg is 92%.

What about the Activity [3] of the same compound?
The Activity was “Non-toxic”.

What about the IC50 [4] of the same compound?
Its IC50 is 2.1 nM.

What about the ED50 [5] of the same compound?
Its ED50 is < 0.3 mg/kg.

What about the EC50 [6] of the same compound?
The EC50 was 30 nM.

And the IC50 [7]?
The IC50 was 210 nM.

And the AUC [8]?
The AUC was 2236 ng·h/mL.

And the IC50 [9]?
The IC50 was 3.3 nM.

What about the Cmax [10] of the same compound?
The Cmax was 444 ng/mL.

And the Vd [11]?
Its Vd is 7.6 L/kg.

What about the half-life [12] of the same compound?
Its half-life is 1.85 h.

What about the Activity [13] of the same compound?
The Activity was “Non-toxic”.

And the IC50 [14]?
The IC50 was 80 nM.

What about the Activity [15] of the same compound?
Its Activity is “Toxic”.

What about the Activity [16] of the same compound?
Its Activity is “Non-toxic”.

What about the F [17] of the same compound?
The F was 48%.

And the Activity [18]?
The Activity was “Toxic”.

And the Activity [19]?
The Activity was “Non-toxic”.
